Experimental data: patent publication US9443060B2, “Method and system to provide personalized pharmaceutical compositions and dosages” (Volant Holdings GMBH, priority 2009, dated 2016)

Assays:
Format in all cases: in vivo, human
[1] = test system: peripheral glucose uptake (PGU); assay: Glucose supply and insulin demand model: effect on peripheral glucose uptake; conditions: for PGU: adjustment factor = increase in peripheral glucose uptake at the therapeutic dose of Table 1, T2D
Protocol: (§1) Therapeutic targets of the glucose supply (CE, 1+2; HGU, 3; GNG, 4; IR, 5) and insulin demand (PGU, 6; PIE, 7) model are presented in FIG. 1. To identify quantitative differences between antidiabetic agents on CE, HGU, GNG, IR, PGU, and PIE, multidatabase searches (Cochrane Central Register of Controlled Trials and Cochrane Register of Systematic Reviews, Embase, OVID Healthstar, OVID Journals, and PubMed) were conducted cross-referencing title and keywords for all selected antidiabetic therapies and their respective targets.
(§2) Alpha-glucosidase, biguanide, and thiazolidinedione (TZD) studies with long-term, pre-post design at maximal therapeutic doses were identified to simulate chronic administration. To maintain consistency with cardiovascular trials and accommodate known influences of hyperglycemia and hyperinsulinemia on the respective targets,^13-16 studies including patients with HbA1c in the range of 6-8% and body mass index (BMI)≧30 kg/m^2 were preferentially selected. In the event multiple studies were available to identify the effect of an agent on a therapeutic target, the mean percent change was used. Conversely, if there was evidence that an agent would elicit a response on a given target but no mathematical representation of the difference was provided, conservative estimates consistent with the scale of other agents and the degree of glucose regulation were instituted to best represent the expected effect. Individual agents were then characterized for the 24 h percent change from baseline for CE, HGU, GNG, IR, PGU, and PIE. Carbohydrate exposure was determined as the combined effect of caloric intake and intestinal carbohydrate absorption. Hepatic glucose uptake was defined as the reported value obtained immediately following oral glucose loading. Because GNG is known to be enhanced in the fasting state and persistent throughout the prandial phase,^17,18 effect was determined during the fasting state and considered equivalent throughout the prandial phase. For studies evaluating fasting glucose and insulin concentrations, an index of IR was determined by homeostasis model assessment of insulin resistance (HOM-AIR) using the following formula: Insulin (mU/liter)×Glucose (mmol)/22.5.^19 To account for known differences in secretory and uptake dynamics during the fasting and prandial phases, studies identifying the impact of therapies during the fasting state (or simulated hyperinsulinemic euglycemic clamp) and prandial phase (or oral glucose load insulin clamp) were specifically identified for changes in PGU (glucose infusion rate) and PIE (insulin concentrations) according to Equation (1): […]
(§3) For sulfonylurea and insulin-based therapies, insulin concentration time profiles were obtained and superimposed on the baseline 24 h insulin concentration time profile of T2D patients (FIG. 2) to calculate the increase in PIE (trapezoidal rule).^20 Calculated increases in incremental and cumulative insulin exposure were correlated to known insulin dose-response effects on HGU, GNG, and PGU (FIG. 3),^18,21 according to the equation y=mx+b. Twenty-four-hour increases in HGU, PGU, and PIE and decreases in GNG were compared to baseline values and percent change calculated.
(§4) With alpha-glucosidase, biguanide, TZD, secretagogue, and insulin therapies characterized for their respective impacts on CE, HGU, GNG, IR, PIE, and PGU, identification of their effect on the glucose supply (decrease in CE, increase in HGU, decrease in GNG, decrease in IR) and insulin demand (increase in PIE, increase in PGU) dynamic was assessed according to Equation (2), which provides the SD ratio according to the invention: […]

[2] = test system: peripheral insulin exposure (PIE); assay: Glucose supply and insulin demand model: effect on peripheral insulin exposure; parameters: PIE (24 h insulin exposure): unit not given here; conditions: for PIE: adjustment factor = increase in peripheral insulin exposure at the therapeutic dose of Table 1, T2D
Protocol: as §1, §2, §3, §4
Twenty-four-hour steady state insulin concentration time curves were superimposed on the baseline secretion profile of the standard T2D patient.

[3] = test system: hepatic glucose uptake (HGU); assay: Glucose supply and insulin demand model: effect on hepatic glucose uptake; conditions: for HGU uptake: adjustment factor = increase in hepatic glucose uptake at the therapeutic dose of Table 1, T2D
Protocol: as §1, §2, §3, §4

[4] = test system: insulin resistance (IR); assay: Glucose supply and insulin demand model: effect on insulin resistance; conditions: for IR reduction: adjustment factor = decrease in insulin resistance at the therapeutic dose of Table 1, T2D
Protocol: as §1, §2, §3, §4

[5] = test system: hepatic gluconeogenesis (GNG); assay: Glucose supply and insulin demand model: effect on hepatic gluconeogenesis; conditions: for GNG inhibition: adjustment factor = decrease in hepatic gluconeogenesis at the therapeutic dose of Table 1, T2D
Protocol: as §1, §2, §3, §4

[6] = test system: carbohydrate exposure (CE); assay: Glucose supply and insulin demand model: effect on carbohydrate exposure; parameters: scale not given here; conditions: for CE inhibition: adjustment factor = decrease in carbohydrate exposure at the therapeutic dose of Table 1, T2D
Protocol: as §1, §2, §3, §4

[7] = Insulin Glargine 1.0 U/Kg daily
[8] = Metformin 2000 mg, Glyburide 10 mg, Pioglitazone 45 mg, Insulin Glargine 0.5 U/kg daily, pH encapsulated glucose 3.0 grams/day
[9] = insulin glargine 0.5 U/kg, from insulin dose-response relationship

Molecule	PGU [1]	PIE [2]	HGU uptake [3]	IR reduction [4]	GNG inhibition [5]	CE inhibition [6]	further results
Cc1ccc(S(=O)(=O)NC(=O)NN2CCCCCC2)cc1 [Tolazamide]	0.36	0.21	0.14	0.00	0.07	–	–
CCCCNC(=O)NS(=O)(=O)c1ccc(C)cc1 [Tolbutamide]	0.36	0.21	0.14	0.00	0.07	–	–
Cc1c(C)c2c(c(C)c1O)CCC(C)(COc1ccc(CC3SC(=O)NC3=O)cc1)O2 (centres unmarked) [Troglitazone]	0.67	−0.10	0.40	0.35	0.22	–	–
Insulin Aspart	0.80	0.42	0.23	0.00	0.14	0.00	–
Insulin Aspart Protamine	0.40	0.28	0.23	0.00	0.10	0.00	–
Insulin Glargine	0.42	0.30	0.24	0.00	0.10	0.00	Score PGU [1, 7]: 0.84; Score PGU [1, 8]: 0.42; increase in PGU [1, 9]: 42%; Score PIE [2, 7]: 0.60; Score PIE [2, 8]: 0.30; PIE (24 h insulin exposure) ([2]; insulin glargine 0.5 U/kg superimposed on standard T2D profile, baseline 5765): 7495; increase in PIE versus baseline ([2]; insulin glargine 0.5 U/kg, 24 h profile superimposed on standard T2D profile, trapezoidal rule): 30%; Score HGU [3, 7]: 0.48; Score HGU [3, 8]: 0.24; increase in HGU [3, 9]: 24%; Score IR [4, 7]: 0.00; Score IR [4, 8]: 0.00; Score CE [6, 7]: 0.00; Score CE [6, 8]: 0.00; Score HGI [5, 7]: 0.20; Score HGI [5, 8]: 0.10; decrease in GNG [5, 9]: 10%
Insulin Isophane	0.40	0.28	0.23	0.00	0.10	0.00	–
Insulin Lente	0.40	0.28	0.23	0.00	0.10	0.00	–
Insulin Lispro	0.80	0.42	0.23	0.00	0.14	0.00	–
Insulin Lispro Protamine	0.40	0.28	0.23	0.00	0.10	0.00	–
Insulin Regular	0.64	0.33	0.21	0.00	0.11	0.00	–
Insulin Ultralente	0.38	0.24	0.17	0.00	0.08	0.00	–
